Laboratory results: US9546138B2, “Pyridone derivatives and uses thereof in the treatment of tuberculosis” (priority 2012, dated 2017)
In brackets after ≈: the same amount, converted by molar mass. Where two headings read alike, the source gives them in different places.

Tests used:
Experiment in all cases: microbe, parasite or virus in culture
Assay type in all cases: cell-based
M. smeg WT (WT inhA) = details: Mycolicibacterium smegmatis, strain M. smeg WT, read-out: Compound MIC50
BCG WT (WT inhA) = details: Mycobacterium tuberculosis variant bovis BCG, read-out: Compound MIC50
[1] = tested on: Mycobacterium tuberculosis H37Rv (ATCC #27294)

SMILES	MIC50 ([1]; 120 h, read-out: MTB MIC50) [µM]	other results
CCc1cc(C(N)=S)ccn1 [Ethionamide, reference compound]	–	MIC50 (M. smeg WT (WT inhA)): > 20 µM; MIC50 (BCG WT (WT inhA); BCG): 17 µM (≈ 2.83 µg/mL); MIC50 ([1]; read-out: Compound MIC50): 1.66 µM (≈ 0.276 µg/mL)
NNC(=O)c1ccncc1 [Isoniazid, isoniazid, reference compound]	–	MIC50 (M. smeg WT (WT inhA)): > 20 µM; MIC50 (BCG WT (WT inhA); strain BCG WT, WT inhA): 0.3 µM (≈ 0.0411 µg/mL); MIC50 ([1]; read-out: Compound MIC50): 0.25 µM (≈ 0.0343 µg/mL)
O=c1[nH]c(Cc2ccccc2)cc(O)c1-c1ccccc1 [PD1, 6-benzyl-4-hydroxy-3-phenylpyridin-2(1H)-one]	1.4 (≈ 0.388 µg/mL)	–
O=c1[nH]c(CC2CCCCC2)cc(O)c1-c1ccccc1 [PD2, 6-(cyclohexylmethyl)-4-hydroxy-3-phenylpyridin-2(1H)-one]	0.22 (≈ 0.0623 µg/mL)	MIC50 ([1]; read-out: Compound MIC50): 0.16 µM (≈ 0.0453 µg/mL)
O=c1[nH]c(CC2CC2)cc(O)c1-c1ccccc1 [PD3, 6-(cyclopropylmethyl)-4-hydroxy-3-phenylpyridin-2(1H)-one]	4.53 (≈ 1.09 µg/mL)	–
O=c1[nH]c(CC2CCCC2)cc(O)c1-c1ccccc1 [PD4, 6-(cyclopentylmethyl)-4-hydroxy-3-phenylpyridin-2(1H)-one]	0.92 (≈ 0.248 µg/mL)	–
O=c1[nH]c(CC2CCC2)cc(O)c1-c1ccccc1 [PD5, 6-(cyclobutylmethyl)-4-hydroxy-3-phenylpyridin-2(1H)-one]	1.19 (≈ 0.304 µg/mL)	–
O=c1[nH]c(CC2CCOCC2)cc(O)c1-c1ccccc1 [PD6, 4-hydroxy-3-phenyl-6-((tetrahydro-2H-pyran-4-yl)methyl)pyridin-2(1H)-one]	10.1 (≈ 2.88 µg/mL)	–
CC(C)CCc1cc(O)c(-c2ccccc2)c(=O)[nH]1 [PD7, 4-hydroxy-6-isopentyl-3-phenylpyridin-2(1H)-one]	1.51 (≈ 0.389 µg/mL)	–
CC(C)(C)Cc1cc(O)c(-c2ccccc2)c(=O)[nH]1 [PD8, 4-hydroxy-6-neopentyl-3-phenylpyridin-2(1H)-one]	10 (≈ 2.58 µg/mL)	–
O=c1[nH]c(CC2CCC(F)(F)CC2)cc(O)c1-c1ccccc1 [PD9, 6-((4,4-difluorocyclohexyl)methyl)-4-hydroxy-3-phenylpyridin-2(1H)-one]	1.32 (≈ 0.422 µg/mL)	–
CC1(C)CCC(Cc2cc(O)c(-c3ccccc3)c(=O)[nH]2)CC1 [PD10, 6-((4,4-dimethylcyclohexyl)methyl)-4-hydroxy-3-phenylpyridin-2(1H)-one]	0.02 (≈ 0.00623 µg/mL)	MIC50 (M. smeg WT (WT inhA)): 0.4 µM (≈ 0.125 µg/mL); MIC50 (BCG WT (WT inhA); strain BCG WT, WT inhA): 0.02 µM (≈ 0.00623 µg/mL); MIC50 ([1]; read-out: Compound MIC50): 0.05 µM (≈ 0.0156 µg/mL)
O=c1[nH]c(Cc2ccncc2)cc(O)c1-c1ccccc1 [PD11, 4-hydroxy-3-phenyl-6-(pyridin-4-ylmethyl)pyridin-2(1H)-one]	6.08 (≈ 1.69 µg/mL)	–
CC(C)Cc1cc(O)c(-c2ccccc2)c(=O)[nH]1 [PD12, 4-hydroxy-6-isobutyl-3-phenylpyridin-2(1H)-one]	1.9 (≈ 0.462 µg/mL)	MIC50 (M. smeg WT (WT inhA)): 0.67 µM (≈ 0.163 µg/mL); MIC50 (BCG WT (WT inhA); strain BCG WT, WT inhA): 0.37 µM (≈ 0.09 µg/mL); MIC50 ([1]; read-out: Compound MIC50): 1.54 µM (≈ 0.375 µg/mL)
CC(C)Cc1[nH]c(=O)c(-c2ccccc2)c(O)c1C(N)=O [PD13, 4-hydroxy-2-isobutyl-6-oxo-5-phenyl-1,6-dihydropyridine-3-carboxamide]	18.7 (≈ 5.35 µg/mL)	–
CC(C)Cc1cc(O)c(-c2cccc(Cl)c2)c(=O)[nH]1 [PD14, 3-(3-chlorophenyl)-4-hydroxy-6-isobutylpyridin-2(1H)-one]	2.67 (≈ 0.742 µg/mL)	–
CC(C)Cc1cc(O)c(-c2ccc(F)cc2)c(=O)[nH]1 [PD15, 3-(4-fluorophenyl)-4-hydroxy-6-isobutylpyridin-2(1H)-one]	6.75 (≈ 1.76 µg/mL)	–
CC(C)Cc1cc(O)c(-c2ccc(F)cc2F)c(=O)[nH]1 [PD17, 3-(2,4-difluorophenyl)-4-hydroxy-6-isobutylpyridin-2(1H)-one]	9.18 (≈ 2.56 µg/mL)	–
CC(C)Cc1cc(O)c(-c2cccc(F)c2)c(=O)[nH]1 [PD18, 3-(3-fluorophenyl)-4-hydroxy-6-isobutylpyridin-2(1H)-one]	2.69 (≈ 0.703 µg/mL)	–
CC(C)Cc1cc(O)c(-c2ccccc2)c(=O)n1C [PD19, 4-hydroxy-6-isobutyl-1-methyl-3-phenylpyridin-2(1H)-one]	8.14 (≈ 2.09 µg/mL)	–
CC1(C)CCC(Cc2cc(OCOP(=O)(O)O)c(-c3ccccc3)c(=O)[nH]2)CC1 [PD21, ((6-((4,4-dimethylcyclohexyl)methyl)-2-oxo-3-phenyl-1,2-dihydropyridin-4-yl)oxy)methyl dihydrogen phosphate]	3.99	–
CC1(C)CCC(Cc2cc(OP(=O)(O)O)c(-c3ccccc3)c(=O)[nH]2)CC1 [PD22, 6-((4,4-dimethylcyclohexyl)methyl)-2-oxo-3-phenyl-1,2-dihydropyridin-4-yl dihydrogen phosphate]	1.72	–
